Test results published in patent publication US11214540B2, “Compositions for treating neurodegenerative diseases” (COGNITION THERAPEUTICS, INC., priority 2017, dated 2022).
Where two headings read alike, the source gives them in different places.

Key:
[1] = molecular target: Sigma-1 receptors on Jurkat cell membranes (Homo sapiens (Human), UniProt Q99720); test: Competitive Radioligand Binding Assay 1, Sigma-1 binding ([3H](+)pentazocine displacement); conditions: sigma-1 receptor affinity; read-out: S1 Ki
Description: Certain compounds were tested for interaction with several receptors by blocking the binding or action of their agonists or antagonists. Some compounds were tested to see whether they interact directly with known cellular receptor or signaling proteins. Compounds can be tested for the ability to displace binding of known agonists or antagonists of a given human receptor that was overexpressed in cell lines or isolated from tissue. Compounds can also be tested for the ability to block downstream signaling induced by agonists or antagonists of a given human receptor. Compounds can be tested for action at 100 known receptors, and it is desirable that specific activity will occur at only a small subset of CNS-relevant receptors.
For Sigma-1 binding, various concentrations of test compounds from 100 μM to 1 nM were used to displace 8 nM [3H](+)pentazocine from endogenous receptors on Jurkat cell membranes (Ganapathy M E et al. 1991, J Pharmacol. Exp. Ther. 289:251-260). 10 μM Haloperidol was used to define non-specific binding. […] (Bowen W D, et al. 1993, Mol. Neuropharmcol 3:117-126). 10 μM Haloperidol was used to define non-specific binding. Reactions were terminated by rapid filtration through Whatman GF/C filters using a Brandel 12R cell harvester followed by two washes with ice-cold buffer. Radioactivity on the dried filter discs was measured using a liquid scintillation analyzer (Tri-Carb 2900TR; PerkinElmer Life and Analytical Sciences). The displacement curves were plotted and the Ki values of the test compounds for the receptor subtypes were determined using GraphPad Prism (GraphPad Software Inc., San Diego, Calif.). The percentage specific binding was determined by dividing the difference between total bound (disintegrations per minute) and nonspecific bound (disintegrations per minute) by the total bound (disintegrations per minute). […]

[2] = molecular target: Sigma-2 receptors on membranes from rat cerebral cortex (Rattus norvegicus (Rat), UniProt Q5U3Y7); test: Competitive Radioligand Binding Assay 1, Sigma-2 binding ([3H]DTG displacement with (+)pentazocine mask); conditions: sigma-2 receptor affinity; read-out: S2 Ki
Description: Using the same protocol, some compounds for which membrane trafficking data are given in Table 1 were tested for recognition of sigma-2 receptor. Certain compounds preferentially bind to the sigma-2 receptor.
For Sigma-1 binding, various concentrations of test compounds from 100 μM to 1 nM were used to displace 8 nM [3H](+)pentazocine from endogenous receptors on Jurkat cell membranes (Ganapathy M E et al. 1991, J Pharmacol. Exp. Ther. 289:251-260). 10 μM Haloperidol was used to define non-specific binding. […] (Bowen W D, et al. 1993, Mol. Neuropharmcol 3:117-126). 10 μM Haloperidol was used to define non-specific binding. Reactions were terminated by rapid filtration through Whatman GF/C filters using a Brandel 12R cell harvester followed by two washes with ice-cold buffer. Radioactivity on the dried filter discs was measured using a liquid scintillation analyzer (Tri-Carb 2900TR; PerkinElmer Life and Analytical Sciences). The displacement curves were plotted and the Ki values of the test compounds for the receptor subtypes were determined using GraphPad Prism (GraphPad Software Inc., San Diego, Calif.). The percentage specific binding was determined by dividing the difference between total bound (disintegrations per minute) and nonspecific bound (disintegrations per minute) by the total bound (disintegrations per minute).
Affinities for Sigma-1 and Sigma-2 receptors are typically obtained from published studies using cerebral tissue homogenates with [3H](+)pentazocine to measure displacement from Sigma-1 receptors and [3H] 1,3-Di-(2-tolyl)guanidine in the presence of 300 nM (+)pentazocine to measure displacement from Sigma-2 receptors.

[3] = system: Abeta oligomer-induced membrane trafficking deficits in primary hippocampal neurons; test: Membrane Trafficking/Exocytosis (MTT) assay, Abeta oligomer effect on neurons; type: cell-based, rat; conditions: membrane trafficking, read-out: EC50 Abeta;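 note: compound potency for inhibiting the Abeta oligomer effect on exocytosis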
Procedure, shortened: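 Rat E18 hippocampal neurons cultured 3 weeks received compound (100 uM to 0.001 nM), then vehicle or Abeta 1-42 oligomers (3 μM total Abeta), for 1-24 h at 37 °C. MTT was added for 1 h, and formazan vesicle exocytosis was quantified by automated imaging with DAPI toxicity check. Tukey-Kramer comparisons were made with N=4.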

[4] = Mouse liver microsome (MLM) stability; type: in vitro ADME; conditions: microsomal stability in mouse liver microsomes (MLM)
Description: A first pharmacokinetic study was performed in microsomes of mice mouse liver microsomes, MLM).
Microsomal stability experiments and plasma stability experiments were performed to determine metabolic and hepatic stability of candidate compounds.

potassium channel hERG = potassium channel hERG (Homo sapiens (Human), UniProt Q12809); test: In vitro testing for hERG inhibition; type: biochemical; conditions: in vitro toxicity potassium channel hERG
Description: In vitro testing for hERG inhibition was performed in a standard assay (See: Haverkamp W, Breithardt G, Carnm A J, Janse M J, Rosen M R, Antzelevitch C, Escande D, Franz M, Malik M, Moss A and Shah R. (2000) Eur Heat J 21 (15); 1216-31).

log P = type: physicochemical
Procedure, shortened: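 Ratio of un-ionized compound concentrations between octanol and water, with aqueous pH set so the un-ionized form predominates. Value given as the log of the octanol/water ratio.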

potassium channel hERG, sequence (Q12809 whole entry): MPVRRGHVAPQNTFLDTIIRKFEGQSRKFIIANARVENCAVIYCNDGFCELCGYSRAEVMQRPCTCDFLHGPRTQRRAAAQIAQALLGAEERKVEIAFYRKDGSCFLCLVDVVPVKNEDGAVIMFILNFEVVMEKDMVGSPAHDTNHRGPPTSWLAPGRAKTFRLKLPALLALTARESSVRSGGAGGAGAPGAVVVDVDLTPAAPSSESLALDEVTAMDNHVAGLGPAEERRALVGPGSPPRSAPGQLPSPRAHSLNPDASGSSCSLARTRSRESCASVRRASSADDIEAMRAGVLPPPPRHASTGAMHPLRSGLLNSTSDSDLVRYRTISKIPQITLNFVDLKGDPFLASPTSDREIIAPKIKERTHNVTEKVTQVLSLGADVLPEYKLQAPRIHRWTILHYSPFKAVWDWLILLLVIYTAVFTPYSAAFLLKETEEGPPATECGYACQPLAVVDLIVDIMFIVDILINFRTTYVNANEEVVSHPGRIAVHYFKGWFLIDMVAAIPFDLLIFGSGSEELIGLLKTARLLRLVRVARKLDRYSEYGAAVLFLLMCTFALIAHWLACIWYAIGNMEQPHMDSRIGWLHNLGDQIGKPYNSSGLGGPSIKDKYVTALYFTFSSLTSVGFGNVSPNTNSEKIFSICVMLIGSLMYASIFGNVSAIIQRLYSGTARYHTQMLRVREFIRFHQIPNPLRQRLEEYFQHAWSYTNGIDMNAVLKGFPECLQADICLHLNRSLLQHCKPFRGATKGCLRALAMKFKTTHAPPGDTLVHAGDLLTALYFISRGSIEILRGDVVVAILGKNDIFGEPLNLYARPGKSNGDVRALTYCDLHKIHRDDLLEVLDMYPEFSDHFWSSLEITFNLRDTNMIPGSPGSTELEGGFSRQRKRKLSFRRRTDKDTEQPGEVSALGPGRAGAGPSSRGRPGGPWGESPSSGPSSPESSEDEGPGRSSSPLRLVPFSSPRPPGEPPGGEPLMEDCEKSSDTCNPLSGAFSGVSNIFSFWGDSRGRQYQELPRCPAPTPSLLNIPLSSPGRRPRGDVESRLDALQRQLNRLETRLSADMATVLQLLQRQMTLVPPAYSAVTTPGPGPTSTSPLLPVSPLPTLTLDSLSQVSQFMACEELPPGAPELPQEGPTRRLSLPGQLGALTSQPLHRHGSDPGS
Sigma-2 receptors on membranes from rat cerebral cortex, sequence (Q5U3Y7 whole entry): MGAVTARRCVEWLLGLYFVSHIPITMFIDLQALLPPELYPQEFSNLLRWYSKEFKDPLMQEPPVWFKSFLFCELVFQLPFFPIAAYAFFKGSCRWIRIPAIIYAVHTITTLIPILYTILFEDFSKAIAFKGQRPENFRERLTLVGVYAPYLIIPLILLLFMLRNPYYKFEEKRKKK
Sigma-1 receptors on Jurkat cell membranes, sequence (Q99720 whole entry): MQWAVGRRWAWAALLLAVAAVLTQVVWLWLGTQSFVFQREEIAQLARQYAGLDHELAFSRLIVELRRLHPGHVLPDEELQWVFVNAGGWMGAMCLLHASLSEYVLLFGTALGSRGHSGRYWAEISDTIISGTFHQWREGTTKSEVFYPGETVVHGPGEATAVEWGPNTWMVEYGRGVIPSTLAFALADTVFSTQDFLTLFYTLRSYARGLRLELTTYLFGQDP

SMILES | Ki [1] | Ki [2] | MLM T1/2 [4] | log P (log P) | half-life ([4]; read-out: MLM T1/2) | logP (log P; octanol/water) | EC50 [3] | IC50 (potassium channel hERG) | EC50 ([3]; Rattus norvegicus, Hippocampal neuron)
CC(C)=CC(CC(C)(C)c1ccc(C(F)(F)F)cc1)N1CCOCC1 (centres unmarked) [Compound 72] | 770 nM | 400 nM | 2.1 min | 5.32 | – | – | 20000 nM | 80000 nM | –
CC(C)=CC(CC(C)(C)c1ccc(S(C)(=O)=O)cc1)N1CCC2(CCOCC2)CC1 (centres unmarked) [Compound 82] | 380 nM | 2800 nM | 60 min | 4.11 | – | – | 20000 nM | 100000 nM | –
CC(C)=CC(CC(C)(C)c1ccc(C(F)(F)F)cc1)N1CCC(C(F)(F)F)CC1 (centres unmarked) [Compound 70] | 33 nM | 340 nM | 14 min | 6.95 | – | – | 20000 nM | 16300 nM | –
CC(C)=CC(CC(C)(C)c1ccc(Cl)cc1)N1CCC(C2CCN(C)CC2)CC1 (centres unmarked) [Compound 43] | 61 nM | 74 nM | 29 min | 6.37 | – | – | 300 nM | 4900 nM | –
CC(C)=CC(CC(C)(C)c1ccc(C(F)(F)F)cc1)N1CCC(O)CC1 (centres unmarked) [Compound 38] | 190 nM | 42 nM | 84 min | 4.85 | – | – | 4500 nM | 16200 nM | –
CC(C)=CC(CC(C)(C)c1ccc(C(F)(F)F)cc1)N1CCC(C2CCOCC2)CC1 (centres unmarked) [Example 9] | 13 nM | 1.8 nM | – | – | 114 min | 6.58 | – | 1000 nM | 500 nM
CC(C)=CC(CC(C)(C)c1ccc(C(F)(F)F)cc1)N1CCCCC1 (centres unmarked) [Compound 61] | 160 nM | 230 nM | 53 min | 6.38 | – | – | 4700 nM | 7300 nM | –
CC(C)=CC(CCc1ccc(F)cc1)N1CCC(C2CCOCC2)CC1 (centres unmarked) [Compound 21] | 8 nM | 6.2 nM | 11 min | 5.26 | – | – | 20000 nM | 830 nM | –
CC(C)=CC(CC(C)(C)c1ccc(Cl)cc1)N1CCC2(CCOCC2)CC1 (centres unmarked) [Compound 41] | 16 nM | 67 nM | 35 min | 5.87 | – | – | 1600 nM | 4000 nM | –
CC(C)=CC(CC(C)(C)c1ccc(Cl)cc1)N1CCC(C2CCOCC2)CC1 (centres unmarked) [Compound 11] | – | 2.2 nM | 26, min. | 6.31 | – | – | 3000 nM | 1500 nM | –
CC(C)=CC(CC(C)(C)c1ccc(Cl)cc1)N1CCC(C)(O)CC1 (centres unmarked) [Compound 73] | 29 nM | 410 nM | 87 min | 4.86 | – | – | 700 nM | 24000 nM | –
CC(C)=CC(CC(C)(C)c1ccc(F)cc1)N1CCC2(CCOCC2)CC1 (centres unmarked) [Compound 36] | 12 nM | 40 nM | 25 min | 5.41 | – | – | 20000 nM | 10000 nM | –
CC(C)=CC(CC(C)(C)c1ccc(Cl)cc1)N1CCC(C)(C)CC1 (centres unmarked) [Compound 31] | 41 nM | 28 nM | 21 min | 6.7 | – | – | 700 nM | 10900 nM | –

Now from value to molecule, other results behind:

Ki [1] | Ki [2] | MLM T1/2 [4] | log P (log P) | half-life ([4]; read-out: MLM T1/2) | logP (log P; octanol/water) | SMILES | EC50 [3] | IC50 (potassium channel hERG) | EC50 ([3]; Rattus norvegicus, Hippocampal neuron)
140 nM | 9.2 nM | 8.2 min | 6.49 | – | – | COCCCC1CCN(C(C=C(C)C)CC(C)(C)c2ccc(Cl)cc2)CC1 (centres unmarked) [Compound 23] | 950 nM | 2200 nM | –
500 nM | 300 nM | 11 min | 5.65 | – | – | CC(C)=CC(CC(C)(C)c1ccc(F)cc1)N1CCCCC1 (centres unmarked) [Compound 68] | 20000 nM | 27000 nM | –
540 nM | 800 nM | 44 min | 4.58 | – | – | CC(C)=CC(CC(C)(C)c1ccc(Cl)cc1)N1CCC(O)CC1 (centres unmarked) [Compound 77] | 20000 nM | 15200 nM | –
1200 nM | 940 nM | 74 min | 4.12 | – | – | CC(C)=CC(CC(C)(C)c1ccc(F)cc1)N1CCC(O)CC1 (centres unmarked) [Compound 79] | 1900 nM | 29000 nM | –
6.1 nM | 18 nM | 60 min | 5.68 | – | – | CC(C)=CC(CC(C)(C)c1ccc(C(F)(F)F)cc1)N1CCC(CCO)CC1 (centres unmarked) [Compound 28] | 4000 nM | 10200 nM | –
130 nM | 230 nM | 60 min | 4.4 | – | – | CC(C)=CC(CC(C)(C)c1ccc(F)cc1)N1CCC(C)(O)CC1 (centres unmarked) [Compound 62] | 800 nM | 41000 nM | –
56 nM | 39 nM | 60 min | 5.31 | – | – | CC(C)=CC(CC(C)(C)c1ccc(C(F)(F)F)cc1)N1CCC(CO)CC1 (centres unmarked) [Compound 35] | 20000 nM | 13400 nM | –
64 nM | 160 nM | 39 min | 4.94 | – | – | CC(C)=CC(CC(C)(C)c1ccc(F)cc1)N1CCC(CCO)CC1 (centres unmarked) [Compound 58] | 500 nM | 14000 nM | –
74 nM | 110 nM | 28 min | 5.41 | – | – | CC(C)=CC(CC(C)(C)c1ccc(Cl)cc1)N1CCC(CCO)CC1 (centres unmarked) [Compound 53] | 20000 nM | 13300 nM | –
25 nM | 120 nM | 3.6 min | 5.47 | – | – | CC(C)=CC(CC(C)(C)c1ccc(Cl)cc1)N1CCC(F)CC1 (centres unmarked) [Compound 55] | 2500 nM | 7200 nM | –
